According to patent US12329739B2, “Isoflavonoid compounds and methods for the treatment of cancer” (Aardvark Therapeutics, Inc., priority 2010, dated 2025):

Experiments:
PC3 = assay: MTT proliferation assay, PC3; assay type: cell-based
Method: (§1) Proliferation Assays. IC50 values were determined for each cell line. Cells were seeded in 96-well plates at an appropriate cell density as determined from growth kinetics analysis and cultured for 5 days in the absence and presence of the test compounds. Cell proliferation was assessed after the addition of 20 μl of 3-4,5 dimethylthiazol-2,5-diphenyl tetrazolium bromide (MTT, 5 mg/ml in PBS, Sigma) for 5 hrs at 37° C. according to manufacturer's instructions. IC50 values were calculated from semi-log plots of % of control proliferation on the y-axis against log dose on the x-axis.
(§2) Anti-proliferative Activity of Isoflavonoid Derivatives. IC50 values were determined for each cell line after 120 h of exposure.

A2780 = assay: MTT proliferation assay, A2780; assay type: cell-based
Method: as §1, §2

CP70 = assay: MTT proliferation assay, CP70; assay type: cell-based
Method: as §1, §2

A2058 = assay: MTT proliferation assay, A2058; assay type: cell-based; conditions: Homo sapiens, A2058, 120 h
Method: as §1, §2

MDA-MB-468 = assay: MTT proliferation assay, MDA-MB-468; assay type: cell-based, human
Method: The human gastric cancer cell line AGS (CRL-1739) was cultured in Hams F-12K (Kaighans modification) medium containing 2 mM L-glutamine, 2.5 g/L sodium bicarbonate and 2 mM sodium pyruvate. The human breast adenocarcinoma line MDA-MB-468 (HTB-132) was cultured in DMEM:F12 (1:1) medium containing 2.5 mM L-glutamine, 2.4 g/L sodium bicarbonate, supplemented with an additional 2 mM L-glutamine.
as §1, §2

SKBR-3 = assay: MTT proliferation assay, SKBR-3; assay type: cell-based, human
Method: The human colorectal adenocarcinoma line HCT-116 (CCL-247) and the human breast adenocarcinoma line SK-BR-3 (HTB-30) were cultured in McCoy's 5a Medium (Invitrogen) containing 1.5 mM L-glutamine and 2.2 g/L sodium bicarbonate. The human colorectal adenocarcinoma line SW620 (CCL-227) was cultured in Leibovitz's L-15 Medium (Invitrogen) containing 2.05 mM L-glutamine.
as §1, §2

MM2200 = assay: MTT proliferation assay, MM2200; assay type: cell-based; conditions: Table 2, Melanoma, MM2200, 120 hrs of exposure
Method: as §1, §2
Activity data is provided is Table 2.

[1] = tested on: A2780 ovarian cancer cells; assay: Combination with carboplatin, proliferation of A2780 cells; assay type: cell-based; conditions: for enhancement of the anti-cancer effect of carboplatin: A2780, depending on exposure regimen (24 hr concurrent or sequential)
Method: In vitro toxicity in normal and cancer cells. Cells were seeded in 96-well plates at an appropriate cell density as determined from growth kinetics analysis. Depending on the plating efficiency and lag phase of individual cell lines, cells were allowed to plate down prior to drug exposure. Intra-experimental single agent controls were included to ensure IC50 values obtained for each cell line matched previous IC50 determinations. Four analogue concentrations were employed in each analysis. Analogue concentrations used in each assay were chosen based on IC50 values, which formed the top concentration of analogue used. Subsequent concentrations were chosen based on simple ½ or 1/10 dilutions of the top analogue concentration employed (i.e. 2, 1, 0.5, 0.25 μM). Nine 1/10 serial dilutions of chemotherapeutic were employed with the top chemotherapeutic concentration being 50 μM.
For combined analysis, analogue concentrations were held constant through 1/10 serial dilutions of chemotherapeutic in growth medium (top chemotherapeutic concentration employed was 50 μM). Combined cultures were cultured for 5 days.
The sequence of administration effect of each agent on chemotherapeutic IC50 values was assessed by exposing plated cells to a single agent in sequence for 24 hr. To assess the isoflavonoid derivative→chemotherapeutic sequence, plated cells were first exposed to the appropriate analogue concentrations and incubated at 37° C. for 24 hr. Cells were washed with growth medium and then exposed to the appropriate chemotherapeutic concentrations and incubated for 24 hr. Cells were then washed and incubated for a further 3 days. To assess the chemotherapeutic→isoflavonoid derivative sequence, the procedure was reversed.
Cell proliferation was assessed after the addition of 20 μl of 3-4,5 dimethylthiazol-2,5-diphenyl tetrazolium bromide (MTT, 2.5 mg/ml in PBS, Sigma) for 3-4 hrs at 37° C. according to manufacturer's instructions. IC50 values were calculated from semi-log plots of % of control proliferation on the y-axis against log dose on the x-axis.
3-D model analysis of the cytotoxic interaction between drug A and drug B enables the representation of predicted inhibitory effect of two drugs in combination in 3 dimensions to reveal actual regions of synergy or antagonism. The 3D synergy plots are based on a theory of “Theoretical Additivity” (TA or […]) as outlined by Kanzawa et al. Theoretical Additivity was calculated from the cytotoxicities of drug A and drug B as monotherapies using the following formula which assumes the drugs are mutually exclusive inhibitors: […]
The TA is calculated for each combination of drug concentrations and subtracted from the observed experimental effect for each combination to give a measurement of synergistic or enhanced action.
Combination index (CI) analysis, which employs the median-effect principle correlating drug dose to cytotoxicity, was also employed to assess synergy. The median-effect equation is utilized to calculate the dose of a drug that inhibits “x” percent of cells (Chou and Talalay, 1984). D=Dm[fa/(1−fa)]^1/m
In vitro Assessment of Combination of Optically Active Compound 31 and Carboplatin. Combination studies employed both 24 hr concurrent exposure, and 24 hr sequential exposure (racemic compound 32→Carboplatin) regimens. In both studies, four analogue concentrations (0.25, 0.5, 1 and 5 μM) were held constant against titrated carboplatin. When 1 and 5 μM of compound 32 was assessed in combination with the lowest concentration of carboplatin employed in this study (0.4 μM), no IC50 for carboplatin was achieved due the high levels of cell kill observed (30-40% of control).

DU145 = assay: MTT proliferation assay, DU145; assay type: cell-based; conditions: Homo sapiens, DU-145; Prostate, DU145, 120 h of exposure
Method: as §1, §2

LNCaP = assay: MTT proliferation assay, LNCaP; assay type: cell-based; conditions: Homo sapiens, Prostate, 120 h of exposure
Method: as §1, §2

COLO205 = assay: MTT proliferation assay, COLO205; assay type: cell-based, human; conditions: Homo sapiens, COLO 205; CRC, COLO205, 120 h of exposure
Method: (§3) The human non-small cell lung adenocarcinoma lines NCI-H1299 (CRL-5803), NCI-H460 (HTB-177), NCI-H358 (CRL-5807), NCI-H838 (CRL-5844), the human colorectal adenocarcinoma lines COLO 205 (CCL-222), HCT-15 (CCL-225) and the human gastric cancer cell line NCI-N87 (CRL-5822) were cultured in RPMI 1640 medium containing 2 g/L sodium bicarbonate (Hyclone/Invitrogen) supplemented with 2 mM L-glutamine (Gibco) 1 mM sodium pyruvate (Sigma), 10 mM HEPES (Sigma) and 4500 mg/L glucose (Sigma). The human non-small cell lung adenocarcinoma line NCI-H2126 (CCL-256) was cultured in DMEM:F12(1:1) (Hyclone/Invitrogen) containing 2.5 mM L-glutamine 2.4 g/L sodium bicarbonate supplemented with 5% fetal bovine serum (FBS), an additional 2 mM L-glutamine, 15 mM HEPES, 0.005 mg/ml insulin (Sigma), 0.01 mg/ml transferrin (Sigma), 30 nM sodium selenite (Sigma), 10 nM hydrocortisone (Sigma) and 10 nM beta-estradiol (Sigma). The human colorectal adenocarcinoma line HT-29 (HTB-38) and the human gastric cancer cell lines OE-19 (#96071721) and MKN1 (JCRB0252) were cultured in RPMI 1640 media supplemented with 2 mM L-glutamine.
as §1, §2

R-182 = assay: MTT proliferation assay, R-182; assay type: cell-based; conditions: Ovarian, R-182, 120 h of exposure
From the text: Tissue culture. The multidrug resistant primary epithelial ovarian cancer cell line R-182 TARA was a gift from Dr. Gil Mor (Yale University, New Haven, CT, USA). This cell line was derived by explant from ovarian tumors and cultured as previously described. All other cell lines were purchased from American Type Culture Collection (ATCC, Manassas, VA, USA) with the exception of MKN1, HuH-7, JHH-1, which were purchased from the Japanese Collection of Research Bioresources (JCRB, Osaka, Japan), and OE19 which was purchased from the European Collection of Cell Cultures (ECACC, Salisbury, UK).
as §1, §2

NCI-H460 = assay: MTT proliferation assay, NCI-H460; assay type: cell-based, human; conditions: Homo sapiens; NSCLC, NCI-H460, 120 h of exposure
Method: as §3, §1, §2

A549 = assay: MTT proliferation assay, A549; assay type: cell-based; conditions: Homo sapiens; NSCLC, A549, 120 h of exposure
Method: as §1, §2

CALU3 = assay: MTT proliferation assay, CALU3; assay type: cell-based; conditions: Homo sapiens, Calu-3; NSCLC, CALU3, 120 h of exposure
Method: as §1, §2

HepG2 = assay: MTT proliferation assay, HepG2; assay type: cell-based, human; conditions: Homo sapiens; Liver, HepG2, 120 h of exposure
Method: (§4) The human hepatocellular carcinoma lines HepG2 (HB-8065), SK-HEP-1 (HTB-52) and the normal human lung fibroblast line IMR-90 (CCL-186) were cultured in Minimum Essential Eagles Medium containing 2 mM L-glutamine, 2.2 g/L sodium bicarbonate, supplemented with 1 mM sodium pyruvate and 0.1 mM non-essential amino acids. The human hepatocellular carcinoma line JHH-1 (JCRB1062) was cultured in Williams E Medium (Invitrogen) containing 2.2 g/L sodium bicarbonate, supplemented with 2 mM L-glutamine. The hepatocellular carcinoma line HuH-7 (JCRB0403) was cultured in DMEM, supplemented with 2 mM L-glutamine.
as §1, §2

SK-Hep-1 = assay: MTT proliferation assay, SK-Hep-1; assay type: cell-based, human; conditions: Homo sapiens, SK-HEP1; Liver, SK-Hep-1, 120 h of exposure
Method: as §4, §1, §2

HuH-7 = assay: MTT proliferation assay, HuH-7; assay type: cell-based, human; conditions: Homo sapiens; Liver, HuH-7, 120 h of exposure
Method: as §4, §1, §2

4405 = assay: MTT proliferation assay, 4405; assay type: cell-based; conditions: Melanoma, 4405, 120 h of exposure
Method: as §1, §2

MM200 = assay: MTT proliferation assay, MM200; assay type: cell-based; conditions: Melanoma, MM200, 120 h of exposure
Method: as §1, §2

In the case of `Oc1ccc([C@H]2c3ccc(O)cc3OC[C@H]2c2ccc(O)cc2)cc1` (racemic) [Compound 32], the IC50 (PC3; Table 2, Prostate, PC3, 120 hrs of exposure) is reported as 0.51 to 1.5 µM, the IC50 (A2780; Table 2, Ovarian, A2780, 120 hrs of exposure) is reported as 0.51 to 1.5 µM and the IC50 (CP70; Table 2, Ovarian, CP70, 120 hrs of exposure) is reported as 0.51 to 1.5 µM. It also gave an IC50 (A2058; Table 2, Melanoma, A2058, 120 hrs of exposure) of 0.15 to 0.5 µM, an IC50 (MDA-MB-468; Table 2, Breast, MDA-MB-468, 120 hrs of exposure) of 0.51 to 1.5 µM and an IC50 (SKBR-3; Table 2, Breast, SKBR-3, 120 hrs of exposure) of 0.51 to 1.5 µM. For the same compound, the IC50 (MM2200) was 0.51 to 1.5 µM, the “enhancement of the anti-cancer effect of carboplatin” value ([1]; 0.25 μM of compound) was 1.5-2 fold and the “enhancement of the anti-cancer effect of carboplatin” value ([1]; 0.5 μM of compound) was 7-11 fold. The “cell kill level observed (no IC50 for carboplatin achieved)” value ([1]; 1 and 5 μM of compound plus 0.4 μM carboplatin, A2780) was 30-40 % of control and the “compound concentration giving maximal activity enhancement with carboplatin” value ([1]; 3D method of Kanzawa, 12.5 μM carboplatin, A2780) was 0.5 µM.

`Oc1ccc([C@@H]2c3ccc(O)cc3OC[C@@H]2c2ccc(O)cc2)cc1` [Compound 33] showed an IC50 (A2780; Homo sapiens, A2780, 120 h, Table 2, Ovarian, A2780, 120 hrs of exposure) of no less than 10 µM, an IC50 (CP70; 120 h, Table 2, Ovarian, CP70, 120 hrs of exposure) of no less than 10 µM and an IC50 (SKBR-3; Homo sapiens, SK-BR-3, 120 h, Table 2, Breast, SKBR-3, 120 hrs of exposure) of no less than 10 µM. The IC50 (MM2200) was no less than 10 µM and the “activity enhancement in combination with carboplatin” value ([1]; A2780 cell line, 31 compared with compound 32) was “did not impart any activity enhancement or antagonistic effect”.

With `Cc1c(O)ccc2c1OC[C@H](c1ccc(O)cc1)[C@@H]2c1ccc(O)cc1` [l-5, l-cis-3-(4-hydroxyphenyl)-4-(4-hydroxyphenyl)-8-methylchroman-7-ol] the IC50 (PC3; Homo sapiens, PC-3, 120 h, Prostate, PC3, 120 h of exposure) was no less than 10 µM, the IC50 (DU145) was no less than 10 µM and the IC50 (LNCaP) was no less than 10 µM. The IC50 (COLO205) was no less than 10 µM, the IC50 (A2780; Homo sapiens, A2780, 120 h, Ovarian, A2780, 120 h of exposure) was no less than 10 µM and the IC50 (R-182) was no less than 10 µM. For the same compound, the IC50 (CP70; 120 h, Ovarian, CP70, 120 h of exposure) was no less than 10 µM, the IC50 (NCI-H460) was no less than 10 µM and the IC50 (A549) was no less than 10 µM. It also gave an IC50 (CALU3) of no less than 10 µM, an IC50 (HepG2) of no less than 10 µM and an IC50 (SK-Hep-1) of no less than 10 µM. It also gave an IC50 (HuH-7) of no less than 10 µM, an IC50 (A2058; Melanoma, A2058, 120 h of exposure) of no less than 10 µM and an IC50 4405 of no less than 10 µM. It also gave an IC50 (MM200) of no less than 10 µM, an IC50 (MDA-MB-468; Homo sapiens, MDA-MB-468, 120 h, Breast, MDA-MB-468, 120 h of exposure) of no less than 10 µM and an IC50 (SKBR-3; Homo sapiens, SK-BR-3, 120 h, Breast, SKBR-3, 120 h of exposure) of no less than 10 µM.
